This is an account of results in US11524993B2 (priority 2015, dated 2022).

Molecules are shown by their SMILES.

One assay concerns A/WSN/33 H1 virus. More on the design: species or system mice. To be noted: mouse, in vivo.
For assay [1], the system named is B/FLA/06 yamagata lineage virus. More on the design: species or system mice. To be noted: mouse, in vivo.

In the case of `CCOC(=O)C1=C[C@@H](OC(CC)CC)[C@H](NC(C)=O)[C@@H](N)C1` [oseltamivir], in the assay with A/WSN/33 H1 virus, the “oxygen saturation level (pulse oximetry) Day 6, A/WSN/33” value was “reduced oxygen saturation at similar levels as those treated with an irrelevant control mAb” and the “protection (survival), influenza A infection model” value is listed as “no protection”. In assay [1], the “oxygen saturation level (pulse oximetry) Day 6, B/FLA/06, avg.” value amounted to 86% and the “survival rates, influenza B infection” value was 90-100%.
